Experimental data from patent US10385403B2, “DDR2 mutations in squamous cell lung cancer” (The Broad Institute, Inc., priority 2012, dated 2019).
“Also recorded” adds a separate entry of the source.

How the values were obtained:
[1] = tested on: Ba/F3 cells expressing DDR2 mutants; assay: Four-day proliferation of IL-3-independent Ba/F3 cells; assay type: cell-based; conditions: for Killing / proliferation of Ba/F3 cells expressing DDR2 mutants: single agent
Procedure: (§1) Cell Culture. A549, NCI-H2286, HCC-366 and NCI-H1703 cells were obtained from the core collection at the Dana Farber Cancer Institute, having previously been purchased from the ATCC and used to establish a collection of early passage lung cancer cell lines which were analyzed by fingerprinting and SNP arrays (32). All cells used for the experiments described in this manuscript were obtained from freezes made at that time. Lung cancer cell lines were grown in RPMI (Invitrogen) with 10% fetal calf serum, NIH-3T3 cells were grown in DMEM (Mediatech) with 10% serum and Ba/F3 cells in RPMI supplemented with 10% serum and IL-3 (BD Biosciences) at 10 ng/ml. For IL-3 withdrawal experiments Ba/F3 cells were collected via centrifugation, washed once in sterile PBS and then resuspended in media without IL-3. Colony formation assays in NIH-3T3 cells were performed in six-well plates in which 25,000 NIH-3T3 cells were plated in triplicate in 1 ml of 0.33% top agar on top of 2 ml of 0.5% bottom agar. After three weeks colonies were counted using the NIH ImageJ software.
(§2) Cell Proliferation and Viability Assays. […] Proliferation was measured four days later.

[2] = tested on: NIH-3T3 cells expressing L63V DDR2; assay: Soft agar colony formation; assay type: cell-based; conditions: L63V DDR2, single application at plating
Procedure: as §1

DDR2 mutant cell lines [3] = assay: Cell viability by trypan blue exclusion; assay type: cell-based
Procedure: as §2

[4] = tested on: HCC-366 cells (DDR2 L239R); conditions: previous report; cited from earlier work
NCI-H2286 xenografts = assay: Xenograft tumor size in nude mice; conditions: 50 mg/kg oral gavage, two weeks
DDR2 mutant cell lines [5] = assay: Annexin V analysis 48 hours after addition of drug; assay type: cell-based; conditions: 48 hours after drug
NCI-H1703 xenografts = assay: Xenograft tumor size in nude mice; conditions: 50 mg/kg oral gavage, two weeks
[6] = tested on: HCC-366 cells (DDR2 L239R)
Text: (§3) Cell Proliferation and Viability Assays. […] Kinase inhibitors were purchased from LC Labs or were synthesized by Nathanael Gray's laboratory at Harvard Medical School.

[7] = tested on: NCI-H2286 cells (DDR2 I638F)
Text: as §3

[8] = tested on: NCI-H1703 SCC cell line (PDGFRA amplification); conditions: NCI-H1703, positive control line
Procedure: Cell Proliferation and Viability Assays. Cell proliferation was measured with the Cell-Titer-Glo reagent (Promega) per the manufacturer's instructions. For experiments with the SCC cell lines cells were plated in clear-bottomed 96 well plates at a density of 1500 cells per well. The following day the drug was added and cell proliferation was measured six days later for the SCC cell lines. For Ba/F3 cells were plated at 5000 cells per well and the drug added the same day. Proliferation was measured four days later. Proliferation measurements were made using a standard 96 well plate luminometer/plate reader. Data are shown as relative values in which the luminescence at a given drug concentration is compared to untreated cells of the same cell type.
Statistics: For proliferation and colony formation assays mean values from a minimum of triplicate samples are reported as well as standard errors as calculated by Microsoft Excel. IC50 values were obtained using Graph Pad Prism software.

[9] = human, in vivo; cited from earlier work
[10] = tested on: Src and STAT5 phosphorylation in DDR2 L63V-expressing Ba/F3 cells; assay: Immunoblots of phospho-Src and phospho-STAT5; assay type: cell-based; conditions: single agent or with nilotinib, AP24534 or dasatinib; two days
Procedure: Immunoblots: Immunoblots were performed using the Nupage system (Invitrogen) per the manufacturer's protocol. Cells were lysed in 1% NP-40 with protease (Roche) and phosphatase inhibitors (Calbiochem) and protein concentration assayed with the Bradford reagent (Bio-Rad). Primary antibodies used were Flag-M2 (Sigma), phospho-Y417-Src (Cell Signaling Technologies), phospho-Y694-STAT5 (Cell Signaling) and Actin (Santa Cruz). A DDR2 antibody was generated for this project by Bethyl Labs. Secondary HRP-conjugated antibodies were all obtained from Pierce and proteins detected by pico-ECL (Thermo Scientific). Images were imported into Adobe Illustrator using an Epson 4490 scanner. […] In all cases adjustment of brightness or contrast the adjustment was applied uniformly to the image as a whole.

[11] = tested on: SCC lines harboring DDR2 mutations (NCI-H2286, HCC-366); assay: Cell proliferation of DDR2-mutant SCC lines (Cell-Titer-Glo); assay type: cell-based

Molecule	IC50 ([1]; mean over Ba/F3 lines expressing DDR2 mutants, without IL-3, four days, read-out: Mean calculated IC50)	Colony formation in soft agar [2]	Cell death vs cell cycle arrest by trypan blue exclusion (DDR2 mutant cell lines [3])	Sensitivity rank among 83 NSCLC cell lines [4]	Tumor size (NCI-H2286 xenografts)	Cellular annexin V staining (DDR2 mutant cell lines [5])	Tumor size (NCI-H1703 xenografts)	Increase of IC50 with ectopic DDR2 T654M gatekeeper mutation ([6]; HCC-366 expressing T654M in cis with L239R)	IC50 ([6]; read-out: IC50, inhibition of proliferation, HCC-366, six days)	Increase of IC50 with ectopic DDR2 T654M gatekeeper mutation ([7]; NCI-H2286 expressing T654M in cis with I638F)	IC50 ([7]; read-out: IC50, inhibition of proliferation, NCI-H2286, six days)	Sensitivity of proliferation [8]	Toxicity in patients [9]	Proliferation on addition of AZD0530 ([1]; Ba/F3 DDR2 L63V grown in 50 nM nilotinib)	Killing / proliferation of Ba/F3 cells expressing DDR2 mutants ([1]; without IL-3, four days)	Src and STAT5 phosphorylation [10]	Effect on proliferation at 50 nM ([1]; 50 nM, wild-type Ba/F3 or Ba/F3 expressing DDR2 mutations)	Proliferation of SCC lines harboring DDR2 mutations [11]
N-(2 ? chloro-6-methylphenyl)-2-[[6-[4-(2-hydroxyethyl)-1-piperazinyl]-2-methyl-4 ? pyrimidinyl]amino]-5-thiazolecarboxamide, monohydrate [Dasatinib]	0.68 µM	inhibited	cell death as opposed to cell cycle arrest	most sensitive squamous cell lung cancer line	decrease in tumor size	increase in cellular annexin V staining	decrease in tumor size	209 fold	0.14 µM	35 fold	0.139 µM	sensitive	myelosuppression and the development of pleural and pericardial effusions					
CN1CCN(CCOc2cc(OC3CCOCC3)c3c(Nc4c(Cl)ccc5c4OCO5)ncnc3c2)CC1 [AZD0530]														marked reduction in proliferation	modest effect on the proliferation; also recorded: minimal toxicity	reduced Src and STAT5 phosphorylation in a dose-dependent fashion		
Cc1cn(-c2cc(NC(=O)c3ccc(C)c(Nc4nccc(-c5cccnc5)n4)c3)cc(C(F)(F)F)c2)cn1 [Nilotinib]															modest activity; also recorded: minimal toxicity		little effect on proliferation	inhibited the proliferation
